Reference: ChEMBL document CHEMBL6074623, “Carbamoylation at C-8 position of natural 3-arylcoumarin scaffold for the discovery of novel PARP-1 inhibitors with potent anticancer activity” (Eur J Med Chem, 2024)

Key:
MDA-MB-436 = assay: Antiproliferative activity against human MDA-MB-436 cells assessed as inhibition of cell growth at 20 uM incubated for 48 hrs by MTT assay relative to control; format: functional
HCC1937 [1] = assay: Antiproliferative activity against human HCC1937 cells assessed as inhibition of cell growth at 20 uM incubated for 48 hrs by MTT assay relative to control; format: functional
SUM149PT [2] = assay: Antiproliferative activity against human SUM149PT cells assessed as inhibition of cell growth at 20 uM incubated for 48 hrs by MTT assay relative to control; format: functional
HCC1937 [3] = assay: Antiproliferative activity against human HCC1937 cells assessed as inhibition of cell growth incubated for 48 hrs by MTT assay; format: functional, cell-based; settings: HCC1937, 48 h
SUM149PT [4] = assay: Antiproliferative activity against human SUM149PT cells assessed as inhibition of cell growth incubated for 48 hrs by MTT assay; format: functional, cell-based
CAPAN-1 [5] = assay: Antiproliferative activity against human CAPAN-1 cells assessed as inhibition of cell growth incubated for 48 hrs by MTT assay; format: functional, cell-based; settings: CAPAN-1, 48 h
SUM149PT [6] = assay: Antiproliferative activity against human SUM149PT cells assessed as inhibition of cell growth at 5 uM incubated for 48 hrs by MTT assay relative to control; format: functional
HCC1937 [7] = assay: Antiproliferative activity against human HCC1937 cells assessed as inhibition of cell growth at 5 uM incubated for 48 hrs by MTT assay relative to control; format: functional
CAPAN-1 [8] = assay: Antiproliferative activity against human CAPAN-1 cells assessed as inhibition of cell growth at 5 uM incubated for 48 hrs by MTT assay relative to control; format: functional
CAPAN-1 [9] = assay: Antiproliferative activity against human CAPAN-1 cells assessed as inhibition of cell growth at 20 uM incubated for 48 hrs by MTT assay relative to control; format: functional
SUM149PT [10] = assay: Induction of apoptosis in human SUM149PT cells assessed as late apoptotic cells at 2 uM incubated for 48 hrs by Annexin V-FITC/PI staining based flow cytometry (reference value: 1.13 %); format: functional
SUM149PT [11] = assay: Induction of apoptosis in human SUM149PT cells assessed as early apoptotic cells at 2 uM incubated for 48 hrs by Annexin V-FITC/PI staining based flow cytometry (reference value: 2.28 %); format: functional
SUM149PT [12] = assay: Induction of cell cycle arrest in human SUM149PT cells assessed as accumulation of cells at S phase at 2 uM incubated for 48 hrs by propidium iodide/RNase A staining based flow cytometry (reference value: 18.7 %); format: functional
SUM149PT [13] = assay: Induction of cell cycle arrest in human SUM149PT cells assessed as accumulation of cells at G0/G1 phase at 2 uM incubated for 24 hrs by propidium iodide/RNase A staining based flow cytometry (reference value: 72.8 %); format: functional
SUM149PT [14] = assay: Induction of cell cycle arrest in human SUM149PT cells assessed as accumulation of cells at G2/M phase at 2 uM incubated for 24 hrs by propidium iodide/RNase A staining based flow cytometry (reference value: 5.54 %); format: functional
SUM149PT [15] = assay: Induction of apoptosis in human SUM149PT cells assessed as viable cells at 2 uM incubated for 24 hrs by Annexin V-FITC/PI staining based flow cytometry (reference value: 93.7 %); format: functional; settings: read-out: Activity
SUM149PT [16] = assay: Induction of apoptosis in human SUM149PT cells assessed as early apoptotic cells at 2 uM incubated for 24 hrs by Annexin V-FITC/PI staining based flow cytometry (reference value: 2.59 %); format: functional
SUM149PT [17] = assay: Induction of apoptosis in human SUM149PT cells assessed as viable cells at 2 uM incubated for 48 hrs by Annexin V-FITC/PI staining based flow cytometry (reference value: 96.1 %); format: functional; settings: read-out: Activity
SUM149PT [18] = assay: Induction of cell cycle arrest in human SUM149PT cells assessed as accumulation of cells at S phase at 2 uM incubated for 24 hrs by propidium iodide/RNase A staining based flow cytometry (reference value: 16.4 %); format: functional
SUM149PT [19] = assay: Induction of cell cycle arrest in human SUM149PT cells assessed as accumulation of cells at G0/G1 phase at 2 uM incubated for 48 hrs by propidium iodide/RNase A staining based flow cytometry (reference value: 69.2 %); format: functional
SUM149PT [20] = assay: Induction of apoptosis in human SUM149PT cells assessed as necrotic cells at 2 uM incubated for 48 hrs by Annexin V-FITC/PI staining based flow cytometry (reference value: 0.51 %); format: functional
SUM149PT [21] = assay: Induction of apoptosis in human SUM149PT cells assessed as necrotic cells at 2 uM incubated for 24 hrs by Annexin V-FITC/PI staining based flow cytometry (reference value: 1.27 %); format: functional
SUM149PT [22] = assay: Induction of apoptosis in human SUM149PT cells assessed as late apoptotic cells at 2 uM incubated for 24 hrs by Annexin V-FITC/PI staining based flow cytometry (reference value: 2.45 %); format: functional

IC50 (HCC1937 [3]) [µM] | Compound | inhibition at 20 µM (MDA-MB-436) [%] | inhibition at 20 µM (HCC1937 [1]) [%] | inhibition at 20 µM (SUM149PT [2]) [%] | IC50 (SUM149PT [4]) [µM] | IC50 (CAPAN-1 [5]) [µM] | further results
 | COc1ccc(-c2cc3cccc(C(N)=O)c3oc2=O)cc1OC | < 40 | > 60 | > 60 |  |  | 
 | NC(=O)c1cc(F)cc2cc(-c3cccc(O)c3)c(=O)oc12 | < 40 | > 60 | > 60 |  |  | 
 | COc1cc(-c2cc3cccc(C(N)=O)c3oc2=O)ccc1O | < 40 | > 60 | > 60 |  |  | 
 | COc1ccc(-c2cc3cccc(C(N)=O)c3oc2=O)cc1 | < 40 | > 60 | > 60 |  |  | 
 | NC(=O)c1cccc2cc(-c3ccc4c(c3)OCO4)c(=O)oc12 | < 40 | > 60 | > 60 |  |  | 
10.6 | COc1ccc(-c2cc3cccc(C(N)=O)c3oc2=O)cc1O | < 40 | > 60 | > 60 | 4.82 | 15.3 | 
 | NC(=O)c1cccc2cc(-c3ccc4c(c3)CCO4)c(=O)oc12 | < 40 | > 60 | > 60 |  |  | 
 | NC(=O)c1cccc2cc(-c3ccccc3O)c(=O)oc12 | < 40 | > 60 | > 60 |  |  | 
3.71 | NC(=O)c1cc(F)cc2cc(-c3ccc4c(c3)CCO4)c(=O)oc12 | < 40 | > 60 | > 60 | 5.11 | 21.1 | 
 | NC(=O)c1cccc2cc(-c3cccs3)c(=O)oc12 | < 40 | > 60 | > 60 |  |  | 
 | COc1ccc(-c2cc3cc(F)cc(C(N)=O)c3oc2=O)cc1O | < 40 | > 60 | > 60 |  |  | 
3.67 | COc1ccc(-c2cc3cc(F)cc(C(N)=O)c3oc2=O)cc1OC | < 40 | > 60 | > 60 | 4.09 | 8.6 | 
 | NC(=O)c1cccc2cc(-c3ccsc3)c(=O)oc12 | < 40 | > 60 | > 60 |  |  | 
1.9 | NC(=O)c1cc(F)cc2cc(-c3ccsc3)c(=O)oc12 | < 40 | > 60 | > 60 | 11.6 | 20.6 | 
 | COc1cc(OC)cc(-c2cc3cc(F)cc(C(N)=O)c3oc2=O)c1 | < 40 | > 60 | > 60 |  |  | 
1.86 | NC(=O)c1cc(F)cc2cc(-c3cccs3)c(=O)oc12 | < 40 | > 80 | > 80 | 0.62 | 17.2 | inhibition at 5 µM (SUM149PT [6]): > 70%; inhibition at 5 µM (HCC1937 [7]): > 70%
 | NC(=O)c1cc(F)cc2cc(-c3ccc4c(c3)OCO4)c(=O)oc12 | < 40 | > 60 | > 60 |  |  | 
 | NC(=O)c1cccc2cc(-c3cccc(O)c3)c(=O)oc12 | < 40 | > 60 | > 60 |  |  | 
10.8 | NC(=O)c1cccc2cc(-c3ccc(O)cc3)c(=O)oc12 | < 40 | > 60 | > 60 | 3.14 | 19.1 | 
 | NC(=O)c1cccc2cc(-c3ccccc3)c(=O)oc12 | < 40 | > 60 | > 60 |  |  | inhibition at 5 µM (CAPAN-1 [8]): > 50%; inhibition at 20 µM (CAPAN-1 [9]): > 60%
0.62 | COc1cccc(-c2cc3cccc(C(N)=O)c3oc2=O)c1 | < 40 | > 80 | > 60 | 4.93 | 4.6 | inhibition at 5 µM (CAPAN-1 [8]): > 50%; inhibition at 20 µM (CAPAN-1 [9]): > 60%; inhibition at 5 µM (HCC1937 [7]): > 70%
 | NC(=O)c1cccc2cn(-c3ccc([C@@H]4CCCNC4)cc3)nc12 [NIRAPARIB] |  |  |  | 7.05 | 10.4 | Activity (SUM149PT [10]): 7.18%; Activity (SUM149PT [11]): 11.8%; Activity (SUM149PT [12]): 51.9%; Activity (SUM149PT [13]): 54.2%; Activity (SUM149PT [14]): 16.2%; viability at 2 µM (SUM149PT [15]): 89.9%; Activity (SUM149PT [16]): 1.85%; viability at 2 µM (SUM149PT [17]): 77.7%; Activity (SUM149PT [18]): 28.4%; Activity (SUM149PT [19]): 32%; Activity (SUM149PT [20]): 3.34%; Activity (SUM149PT [21]): 1.93%; Activity (SUM149PT [22]): 6.34%
 | COc1ccc(-c2cc3cc(F)cc(C(N)=O)c3oc2=O)cc1 | < 40 | > 60 | > 60 |  |  | 
 | NC(=O)c1cc(F)cc2cc(-c3ccccc3)c(=O)oc12 | < 40 | > 60 | > 60 |  |  | 
 | COc1cc(OC)cc(-c2cc3cccc(C(N)=O)c3oc2=O)c1 | < 40 | > 60 | > 60 |  |  | 
 | NC(=O)c1cc(F)cc2cc(-c3ccc(O)cc3)c(=O)oc12 | < 40 | > 60 | > 60 |  |  | 
2.94 | NC(=O)c1cc(F)cc2cc(-c3ccccc3O)c(=O)oc12 | < 40 | > 80 | > 60 | 3.29 | 11.9 | inhibition at 5 µM (HCC1937 [7]): > 70%
4.2 | COc1cc(-c2cc3cc(F)cc(C(N)=O)c3oc2=O)ccc1O | < 40 | > 60 | > 60 | 3.18 | 3.16 | inhibition at 5 µM (CAPAN-1 [8]): > 50%; inhibition at 20 µM (CAPAN-1 [9]): > 60%
